Where “and” joins values, the source holds several entries; their conditions need not be identical. Equal values may be shown once.

The source of these data is patent US20070148703A1, “Method of screening remedy for breast cancer” (Genomembrane, Inc., priority 2003, published 2007).

Common to all, as to type: cell-based, human
The test system of experiment [1] is T-47D cells. Nature of the experiment: Inhibition of [3H] estrone-3-sulfate uptake by T-47D cells. The method, then: The cell suspension and a solution containing a radiolabeled test compound in the transport medium were separately incubated at 37° C. for 20 min, then transport was initiated by mixing them. […] Each cell pellet was solubilized in 3 N KOH, and neutralized with HCl. Then, the associated radioactivity was measured by means of a liquid scintillation counter using Clearsol-1 (Nacalai tesque) as a liquid scintillation fluid.
To characterize the substrate specificity of the transport system, the inhibitory effects of hormones, their conjugated metabolites, and various organic compounds on [^3H] estrone-3-sulfate uptake by T-47D cells were examined. The results are shown in (Table 1). In Table 1, values in control (%) are indicated as the ratio in comparison to uptake amount of estrone-3-sulfate in control which was set at 100%. Each value represents the mean±S.E.M. (n=4), and *P<0.05 indicates comparison to control (Student's test).

Another experiment concerns MCF-7 cells. The experiment is described as follows: MCF-7 cell proliferation with estrone-3-sulfate or estradiol, with or without BSP. The method, then: It was examined whether cell proliferation promoting effect on MCF-7 cells (ATCC-HTB22) by estrone-3-sulfate is inhibited by suppressing intracellular accumulation of estrone-3-sulfate. MCF-7 cells were seeded on a 96-well plate at a concentration of 8×10^4 cells/cm^2, and cultured for 1 day. Then, a medium containing estrone-3-sulfate (Sigma Chemicals) at various concentrations, ranging from 10 pM to 10 μM, and 100 μM of bromosulfophtalein (BSP: Sigma Chemicals), and a medium containing estradiol (Sigma Chemicals) at various concentrations, ranging from 1 pM to 10 nM, and 100 μM of BSP were added respectively, and culture was conducted for 3 more days. Subsequently, cell amount was measured.
However, this is considered to be estrogen activity by BSP itself or metabolite thereof. This effect decreased relatively with the increase of estrogen concentration. […] Accordingly, it is considered that the uptake of estrone-3-sulfate into the cells was inhibited by BSP, and that of estradiol, which is highly lipid-soluble, was not inhibited, and therefore there was no change in cell proliferation promoting effect.

Experiment [2] has as its system T-47D cells. The experiment is described as follows: T-47D cell proliferation assay. The method, then:
(a) T-47D cells were seeded at a density of 8,000 cells/well and cultured. 24 hours after seeding (day 1), estradiol (1 pM, closed triangles), estrone-3-sulfate (100 nM, closed circles), DMSO (0.1, open triangles) or water (open circles) was added. After the designated number of days, T-47D cells were trypsinized and counted.
(b) T-47D cells were proliferated in the presence of various concentrations of estradiol (closed triangles) or estrone-3-sulfate (closed circles), ranging from 10^−16 to 10^−11 M, or from 10^−11 to 10^−6 M, respectively. The cell numbers were counted at day 6 after seeding. Each value represents the mean±S.E.M. (n=3).
T-47D cells were routinely proliferated in RPMI 1640 medium (Sigma Chemicals) containing phenol red and 10% FCS in a humidified incubator at 37° C. and 5% CO2. For the proliferation assay, FCS was incubated with 0.5% dextran-coated charcoal (DCC) at 4° C. overnight, then the medium was decanted and DCC was filtered off (0.2 μm) to remove steroid hormones. This procedure was repeated three times. Then T-47D cells were seeded into 96-well plates at a density of 8,000 cells/well in phenol red-free RPMI 1640 medium containing 2.5% DCC-treated FCS. […] At designated days after seeding, the cells were treated with trypsin, and cell numbers were counted.

Experiment [3] has as its system T-47D cells. Nature of the experiment: Uptake of estrone-3-sulfate by T-47D cells (time course, cation and concentration dependence). The settings on record: 5.1 nM to 50 μM, 37° C., 10 min, saturable uptake; mean±S.E.M. The method, then:
Cultured T-47D cells were incubated at 37° C. over 35 min in medium containing [^3H] estrone-3-sulfate (7.1 nM) with (open circles) or without (closed circles) 1 mM unlabeled estrone-3-sulfate. Each value represents the mean±S.E.M. (n=4). When the error bars are not shown, they are smaller than the symbols.
The uptake rate of [^3H] estrone-3-sulfate (7.1 nM) for 10 min was measured in the presence or absence of extracellular Na^+. Extracellular Na^+ was replaced with K^+, Li^+, or N-methylglucamine^+ (NMG^+). Each value represents the mean±S.E.M. (n=4).
The uptake of estrone-3-sulfate at various concentrations, ranging from 5.1 nM to 50 μM, was measured at 37° C. for 10 min. […]
Transport experiments were performed as described previously (Tamai et al., 2001). […] Then, the associated radioactivity was measured by means of a liquid scintillation counter using Clearsol-1 (Nacalai tesque) as a liquid scintillation fluid.
Cellular protein content was determined according to the method of Bradford by using a BioRad protein assay kit (Hercules) with bovine serum albumin as the standard (Bradford, 1976). […] All data were expressed as means±S.E.M., and statistical analysis was performed by the use of Student's t test with P<0.05 as the criterion of significance. […]

Setting [4] is: inhibitor 5 μM, mean±S.E.M. (n=4).
Where [5] appears, read: inhibitor 50 μM, mean±S.E.M. (n=4).
The mark [6] stands for this setting: inhibitor 100 μM, mean±S.E.M. (n=4).
Setting [7] is: inhibitor 1000 μM, mean±S.E.M. (n=4).

Take `C[C@]12CC[C@@H]3c4ccc(O)cc4CC[C@H]3[C@@H]1CC[C@@H]2O[C@@H]1O[C@H](C(=O)O)[C@@H](O)[C@H](O)[C@H]1O` [Estradiol-17β-glucuronide]: in the experiment with T-47D cells [1] (50 μM), the “inhibitory effect on [3H] estrone-3-sulfate uptake, in words” value (“inhibitory effect” for short) is given as “no effect”. Moreover, the “[3H] estrone-3-sulfate uptake, Control (%)” value in the experiment on T-47D cells [1] (setting [4]) worked out at 73.8 ± 8.7%; with T-47D cells [1] (setting [5]), 90.4 ± 11.5%.

As for `C[C@]12CC[C@H](O)CC1=CC[C@@H]1[C@@H]2CC[C@]2(C)C(=O)CC[C@@H]12` [Dehydroepiandrosterone], the “[3H] estrone-3-sulfate uptake, Control (%)” value was 75.6 ± 3.8 * % with T-47D cells [1] (setting [4]) and 44.8 ± 8.0 * % with T-47D cells [1] (setting [5]).

Consider `C[C@]12CC[C@@H]3c4ccc(O)cc4CC[C@H]3[C@@H]1CC[C@@H]2O` [Estradiol], for which the entries for the “[3H] estrone-3-sulfate uptake, Control (%)” value in the experiment on T-47D cells [1] (setting [4]) and with T-47D cells [1] (setting [5]) were 76.9 ± 4.8 * % and 45.7 ± 5.3 * %, respectively.

In the case of `O=C1OC(c2ccc(O)c(S(=O)(=O)O)c2)(c2ccc(O)c(S(=O)(=O)O)c2)c2c(Br)c(Br)c(Br)c(Br)c21` [Bromosulfophtalein], the “cell proliferation of MCF-7 cells with 100 μM BSP” value with MCF-7 cells (100 μM BSP added simultaneously, low estrone-3-sulfate concentration) was “cell proliferation promoting effect was observed”. In addition, the entries for the “cell proliferation promoting effect by BSP” value with MCF-7 cells (100 μM BSP plus 10 μM estrone-3-sulfate) and in the experiment on MCF-7 cells (100 μM BSP plus estradiol) were “inhibited” and “no change”, respectively. For the same compound, the “[3H] estrone-3-sulfate uptake, Control (%)” value is 18.9 ± 2.8 * % in the experiment on T-47D cells [1] (setting [6]); 18.9% in the experiment with T-47D cells [1] (inhibitor 100 μM, mean±S.E.M. (n=4), listed as bromosulfophthalein); 14.2 ± 1.2 * % in the experiment on T-47D cells [1] (setting [7]).

In the case of `C[C@]12CC[C@@H]3c4ccc(OS(=O)(=O)O)cc4CC[C@H]3[C@@H]1CCC2=O` [Estrone-3-sulfate], the “cell proliferation promoting effect on MCF-7 cells” value with MCF-7 cells (estrogen only (positive control), 3 days) was “cell proliferation promoting effect was observed”. Also, the “proliferation of T-47D cells compared with solvent alone” value with T-47D cells [2] (100 nM) is “stimulated”. Moreover, the EC50 with T-47D cells [2] (6 days after seeding, nonlinear regression analysis, read-out: median effective concentration (EC50), stimulation of T-47D proliferation) was ~17.1 nM and 17.1 nM. Moreover, the “[3H] estrone-3-sulfate uptake, Control (%)” value is listed as 34.7 ± 4.3 * % in the experiment on T-47D cells [1] (setting [4]); 34.7% in the experiment with T-47D cells [1] (inhibitor 5 μM, mean±S.E.M. (n=4), listed as estrone-3-sulfate); 6.6 ± 0.9 * % with T-47D cells [1] (setting [5]); 6.6% in the experiment on T-47D cells [1] (inhibitor 50 μM, mean±S.E.M. (n=4), listed as estrone-3-sulfate). Further, the Km in the experiment on T-47D cells [3] was 3.9 ± 0.78 µM. Also, the “Vmax of estrone-3-sulfate uptake” value in the experiment on T-47D cells [3] is 576.3±32.9 pmol/mg protein/10 min.

Regarding `CCCN(CCC)S(=O)(=O)c1ccc(C(=O)O)cc1` [Probenecid], the “inhibitory effect” value in the experiment with T-47D cells [1] (concentration not given) is on record as “slight inhibitory effects”. The “[3H] estrone-3-sulfate uptake, Control (%)” value with T-47D cells [1] (setting [6]) was 103.2 ± 10.2%; in the experiment on T-47D cells [1] (setting [7]) it was 79.1 ± 3.8 * %.

Turning to `CC1(C)S[C@@H]2[C@H](NC(=O)Cc3ccccc3)C(=O)N2[C@H]1C(=O)O` [Penicillin G], in the experiment with T-47D cells [1] (concentration not given), the “inhibitory effect” value is on record as “slight inhibitory effects”. Besides, the “[3H] estrone-3-sulfate uptake, Control (%)” value in the experiment with T-47D cells [1] (setting [6]) was 83.2 ± 2.0 * %; with T-47D cells [1] (setting [7]), 75.9 ± 10.5%.

Consider `CC[N+](CC)(CC)CC` [Tetraethylammonium], for which the “inhibitory effect” value in the experiment with T-47D cells [1] (concentration not given) was “no effect”. For the same compound, the results for the “[3H] estrone-3-sulfate uptake, Control (%)” value in the experiment with T-47D cells [1] (setting [6]) and in the experiment on T-47D cells [1] (setting [7]) were 87.4 ± 1.5 * % and 112.7 ± 18.6%, respectively.

Consider `C[C@H]1O[C@@H](O[C@H]2[C@@H](O)C[C@H](O[C@H]3[C@@H](O)C[C@H](O[C@H]4CC[C@@]5(C)[C@H](CC[C@@H]6[C@@H]5C[C@@H](O)[C@]5(C)[C@@H](C7=CC(=O)OC7)CC[C@]65O)C4)O[C@@H]3C)O[C@@H]2C)C[C@H](O)[C@@H]1O` [Digoxin], for which the “inhibitory effect” value in the experiment on T-47D cells [1] (concentration not given) is listed as “no effect”. The “[3H] estrone-3-sulfate uptake, Control (%)” value with T-47D cells [1] (inhibitor 100 μM, DMSO 1%, vs Control (DMSO 1%)) is on record as 90.3 ± 3.5%; in the experiment with T-47D cells [1] (inhibitor 1000 μM, DMSO 1%, vs Control (DMSO 1%)) it was 94.8 ± 4.4%.

Consider `C[C@H](CCC(=O)NCCS(=O)(=O)O)[C@H]1CC[C@H]2[C@@H]3[C@H](O)C[C@@H]4C[C@H](O)CC[C@]4(C)[C@H]3C[C@H](O)[C@]12C` [Taurocholic acid], for which the “[3H] estrone-3-sulfate uptake, Control (%)” value with T-47D cells [1] (setting [6]) was 69.3 ± 2.7 * %; in the experiment on T-47D cells [1] (inhibitor 100 μM, mean±S.E.M. (n=4), listed as taurocholic acid), 69.3%; in the experiment with T-47D cells [1] (setting [7]), 24.1 ± 2.3 * %.

In the case of `O=C(O)c1ccccc1O` [Salicylate], the “inhibitory effect” value in the experiment on T-47D cells [1] (concentration not given) is given as “no effect”. The “[3H] estrone-3-sulfate uptake, Control (%)” value with T-47D cells [1] (setting [6]) was found to be 94.9 ± 6.0%; with T-47D cells [1] (setting [7]), 82.7 ± 7.3%.

`Nc1ccc(C(=O)NCC(=O)O)cc1` [p-Aminohippuric acid]: the “inhibitory effect” value with T-47D cells [1] (concentration not given) is on record as “no effect”. Besides, the “[3H] estrone-3-sulfate uptake, Control (%)” value was 87.8 ± 1.5% in the experiment on T-47D cells [1] (setting [6]) and 112.7 ± 18.6% in the experiment on T-47D cells [1] (setting [7]).

For `C[C@]12CC[C@@H]3c4ccc(O)cc4CC[C@H]3[C@@H]1CCC2=O` [Estrone], the figures for the “[3H] estrone-3-sulfate uptake, Control (%)” value with T-47D cells [1] (setting [4]) and in the experiment on T-47D cells [1] (setting [5]) were 78.8 ± 3.3 * % and 64.8 ± 7.5 * %, respectively.

In general, Km refers to the substrate concentration at which the rate is half of its maximum.
